{
  "source": "patent US8097646B2",
  "about": "“Ophthalmic preparation containing menthyl ester of indomethacin” (AlphaRx, Inc., priority 2005, dated 2012)",
  "key": {"[1]": {"settings": "cited from earlier work"}, "eye": {"test_system": "eye", "experiment": "Comparison of ocular irritation levels, one drop onto the eye of volunteers (Example 10)", "type": "in vivo, healthy volunteers", "settings": "ophthalmic formulation comprising MEI, volunteers n=3", "procedure": "The ocular irritation of MEI in an ophthalmic formulation as compared with an indomethacin-containing ophthalmic preparation has been tested in 3 healthy volunteers. One drop (40-50 mcl) of the tested formulations (0.25% of MEI (as per Example 5-9), 0.1% Indocollyre®, and sterile saline as the control) was placed onto the eye of each volunteer using an appropriate dropper. The interval between sample applications was at least 24 hours The comparative irritation for MEI, indomethacin and other NSAIDs (Indocollyre®) in ophthalmic formulations is set out in Table 4 (volunteers data, n=3): The irritation scale in the above table ranges from 0-10, with 0 corresponding to no burning or itching, and 10 corresponding to extremely severe burning or itching."}, "[2]": {"experiment": "Pharmacokinetics of MEI in rats after intraperitoneal administration (Example 11, FIG. 2)", "type": "in vivo", "settings": "20 mg/kg intraperitoneally, submicron emulsion (Example 6), Wistar rats", "procedure": "FIG. 2 is a graph illustrating the pharmacokinetics of MEI in Wistar rats after intraperitoneal IP) administration (20 mg/kg, Example 6) as described in Example 11."}, "carrageenan paw edema": {"test_system": "carrageenan paw edema", "experiment": "Carrageenan paw edema model (Example 12, FIG. 3)", "type": "in vivo", "settings": "intraperitoneally administrated, rats n=4, 1% carrageenan into hind paw", "procedure": "FIG. 3 is a graph illustrating the comparative anti-inflammatory activity of indomethacin and MEI in a carrageenan paw edema model (rats, n=4) as described in Example 12.\nFIG. 3 represents the anti-inflammatory activity of MEI in a carrageenan model. Inflammation in rats (n=4) was caused by injection of 100 microliters of sterile 1% carrageenan solution into a hind paw, originating local edema development with maximum development at 3-4 hours after administration. The contaralateral paw was injected with 100 microliters of saline and used as control. Paw volumes were measured by plethysmometry, (Ugo Basil Plethysmometer, Italy) and the calculated difference in paw volumes indicated the severity of inflammation."}, "[3]": {"experiment": "Solubility of the substance in water and solvents", "type": "physicochemical", "procedure": "MEI is a slightly yellow crystalline substance with a melting point of 86-90° C. […] The NMR, mass-spectrometry and FT-IR-spectrum results were: […]"}},
  "data": [
    {"smiles": "COc1ccc2c(c1)c(CC(=O)O)c(C)n2C(=O)c1ccc(Cl)cc1", "note": "[Indomethacin, 1-(4-Chlorobenzoyl)-5-Methoxy-2-methyl-1H-indole-3-acetic acid]", "values": [
      {"measurement": "pH above which the substance is unstable", "setting": "[1]", "value": "greater than 6.0"}
    ]},
    {"smiles": "COc1ccc2c(c1)c(CC(=O)OC1CC(C)CCC1C(C)C)c(C)n2C(=O)c1ccc(Cl)cc1", "note": "(centres unmarked) [MEI, Menthyl ester of indomethacin]", "values": [
      {"measurement": "Irritation compared with indomethacin in solution", "setting": "eye", "value": "significantly lower irritation than indomethacin in solution"},
      {"measurement": "Level of the parent substance (MEI itself)", "setting": "[2]", "value": "decreases rapidly"},
      {"measurement": "Metabolism of MEI and release of indomethacin", "setting": "[2]", "value": "rapidly metabolizes and releases indomethacin for a prolonged period"},
      {"measurement": "Anti-inflammatory activity (difference in paw volumes)", "setting": "carrageenan paw edema", "value": "high level of anti-inflammatory activity"},
      {"measurement": "Solubility in alcohol, methylene chloride and chlorophorm, ethyl acetate, glycerides and other organic solvents", "setting": "[3]; organic solvents", "value": "freely soluble"},
      {"measurement": "Solubility in propylene glycol and polyethylene glycol (PEG)-400", "setting": "[3]; propylene glycol, PEG-400", "value": "poorly soluble"},
      {"measurement": "Solubility in water", "setting": "[3]; water", "value": "insoluble"}
    ]}
  ]
}
